Source: ChEMBL document CHEMBL1201862, “PubChem BioAssay data set” (2004)
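Assay format: 96-well plates, 48-hour exposure. At the GI50, growth is halved.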 Calls of active or inactive are those of the source. No stated cut-off is given here; in the data, active = GI50 up to about 1.1 µM and inactive = higher.

What was measured:
Assay in all cases: inhibition of tumour cell growth, NCI panel, 48 h
786-0 = test system: 786-0
A498 = test system: A498
A549 = test system: A549
ACHN = test system: ACHN
BT-549 = test system: BT-549
CAKI-1 = test system: CAKI-1
CCRF-CEM = test system: CCRF-CEM
COLO 205 = test system: COLO 205
DU-145 = test system: DU-145
EKVX = test system: EKVX
HCC 2998 = test system: HCC 2998
HCT-116 = test system: HCT-116
HCT-15 = test system: HCT-15
HL-60 = test system: HL-60
HOP-62 = test system: HOP-62
HOP-92 = test system: HOP-92
HT-29 = test system: HT-29
Hs-578T = test system: Hs-578T
IGROV-1 = test system: IGROV-1
K562 = test system: K562
KM12 = test system: KM12
LOX IMVI = test system: LOX IMVI
M14 = test system: M14
MCF7 = test system: MCF7
MDA-MB-231 = test system: MDA-MB-231
MDA-MB-435 = test system: MDA-MB-435
MDA-N = test system: MDA-N
MOLT-4 = test system: MOLT-4
Malme-3M = test system: Malme-3M
NCI-H226 = test system: NCI-H226
NCI-H23 = test system: NCI-H23
NCI-H460 = test system: NCI-H460
NCI-H522 = test system: NCI-H522
NCI/ADR-RES = test system: NCI/ADR-RES
OVCAR-3 = test system: OVCAR-3
OVCAR-4 = test system: OVCAR-4
OVCAR-5 = test system: OVCAR-5
OVCAR-8 = test system: OVCAR-8
PC-3 = test system: PC-3
RPMI-8226 = test system: RPMI-8226
RXF 393 = test system: RXF 393
SF-268 = test system: SF-268
SF-295 = test system: SF-295
SF-539 = test system: SF-539
SK-MEL-28 = test system: SK-MEL-28
SK-MEL-2 = test system: SK-MEL-2
SK-MEL-5 = test system: SK-MEL-5
SK-OV-3 = test system: SK-OV-3
SN12C = test system: SN12C
SNB-19 = test system: SNB-19
SNB-75 = test system: SNB-75
SR = test system: SR
SW-620 = test system: SW-620
T47D = test system: T47D
TK-10 = test system: TK-10
U-251 = test system: U-251
UACC-257 = test system: UACC-257
UACC-62 = test system: UACC-62
UO-31 = test system: UO-31
DLD-1 = test system: DLD-1
DMS-114 = test system: DMS-114
KM-20L2 = test system: KM-20L2
LXFL 529 = test system: LXFL 529
M19-MEL = test system: M19-MEL
SNB-78 = test system: SNB-78

SMILES: CN(C)c1ccc(/C=C/C(=O)c2cc(C(C)(C)C)c(O)c(C(C)(C)C)c2)cc1
- GI50 (786-0): 1.3 µM (inactive)
- GI50 (A498): 1.91 µM (inactive)
- GI50 (A549): 2.32 µM (inactive)
- GI50 (ACHN): 1.73 µM (inactive)
- GI50 (BT-549): 3.64 µM (inactive)
- GI50 (CAKI-1): 1.14 µM (inactive)
- GI50 (CCRF-CEM): 1.01 µM (active)
- GI50 (COLO 205): 0.348 µM (active)
- GI50 (DU-145): 2 µM (inactive)
- GI50 (EKVX): 0.583 µM (active)
- GI50 (HCC 2998): 1.64 µM (inactive)
- GI50 (HCT-116): 1.05 µM (active)
- GI50 (HCT-15): 1.15 µM
- GI50 (HL-60): 2.29 µM (inactive)
- GI50 (HOP-62): 2.54 µM (inactive)
- GI50 (HOP-92): > 100 µM (inactive)
- GI50 (HT-29): 1.03 µM (active)
- GI50 (Hs-578T): 2.72 µM (inactive)
- GI50 (IGROV-1): 4.15 µM (inactive)
- GI50 (K562): 0.979 µM (active)
- GI50 (KM12): 0.641 µM (active)
- GI50 (LOX IMVI): 2.06 µM (inactive)
- GI50 (M14): 1.15 µM (inactive)
- GI50 (MCF7): 0.469 µM (active)
- GI50 (MDA-MB-231): 2.44 µM (inactive)
- GI50 (MDA-MB-435): 0.258 µM (active)
- GI50 (MDA-N): 0.249 µM (active)
- GI50 (MOLT-4): 3.85 µM (inactive)
- GI50 (Malme-3M): > 100 µM (inactive)
- GI50 (NCI-H226): 1.85 µM (inactive)
- GI50 (NCI-H23): 2.07 µM (inactive)
- GI50 (NCI-H460): 0.82 µM (active)
- GI50 (NCI-H522): 0.482 µM (active)
- GI50 (NCI/ADR-RES): 0.796 µM (active)
- GI50 (OVCAR-3): 0.443 µM (active)
- GI50 (OVCAR-4): 1.98 µM (inactive)
- GI50 (OVCAR-5): 2.99 µM (inactive)
- GI50 (OVCAR-8): 2.93 µM (inactive)
- GI50 (PC-3): 1.22 µM (inactive)
- GI50 (RPMI-8226): 1.55 µM (inactive)
- GI50 (RXF 393): 0.204 µM (active)
- GI50 (SF-268): 2.66 µM (inactive)
- GI50 (SF-295): 0.43 µM (active)
- GI50 (SF-539): 0.625 µM (active)
- GI50 (SK-MEL-28): > 60 µM (inactive)
- GI50 (SK-MEL-2): 1.08 µM (active)
- GI50 (SK-MEL-5): 0.774 µM (active)
- GI50 (SK-OV-3): 1.74 µM (inactive)
- GI50 (SN12C): 3.13 µM (inactive)
- GI50 (SNB-19): 3.73 µM (inactive)
- GI50 (SNB-75): 0.579 µM (active)
- GI50 (SR): 0.546 µM (active)
- GI50 (SW-620): 0.986 µM (active)
- GI50 (T47D): 4.06 µM (inactive)
- GI50 (TK-10): 1.23 µM (inactive)
- GI50 (U-251): 0.946 µM (active)
- GI50 (UACC-257): 0.321 µM (active)
- GI50 (UACC-62): 0.637 µM (active)
- GI50 (UO-31): 1.61 µM (inactive)

SMILES: CO[C@H](C(=O)O[C@H]1C(=O)N2CC[C@@H]3CCC[C@H]1C32C)c1ccccc1 (stereo not given in full)
- GI50 (786-0): > 100 µM (inactive)
- GI50 (A549): > 100 µM (inactive)
- GI50 (ACHN): > 100 µM (inactive)
- GI50 (CAKI-1): > 100 µM (inactive)
- GI50 (CCRF-CEM): > 100 µM (inactive)
- GI50 (COLO 205): > 100 µM (inactive)
- GI50 (DLD-1): > 100 µM (inactive)
- GI50 (DMS-114): > 100 µM (inactive)
- GI50 (EKVX): > 100 µM (inactive)
- GI50 (HCC 2998): 60.8 µM (inactive)
- GI50 (HCT-116): > 100 µM (inactive)
- GI50 (HCT-15): > 10 µM
- GI50 (HL-60): > 100 µM (inactive)
- GI50 (HOP-62): > 100 µM (inactive)
- GI50 (HT-29): > 100 µM (inactive)
- GI50 (IGROV-1): > 100 µM (inactive)
- GI50 (K562): > 100 µM (inactive)
- GI50 (KM-20L2): > 100 µM (inactive)
- GI50 (KM12): > 100 µM (inactive)
- GI50 (LOX IMVI): > 100 µM (inactive)
- GI50 (LXFL 529): > 100 µM (inactive)
- GI50 (M14): > 100 µM (inactive)
- GI50 (M19-MEL): > 100 µM (inactive)
- GI50 (MOLT-4): > 100 µM (inactive)
- GI50 (Malme-3M): > 100 µM (inactive)
- GI50 (NCI-H226): > 100 µM (inactive)
- GI50 (NCI-H23): > 100 µM (inactive)
- GI50 (NCI-H460): > 100 µM (inactive)
- GI50 (NCI-H522): 66.2 µM (inactive)
- GI50 (OVCAR-3): > 100 µM (inactive)
- GI50 (OVCAR-4): > 100 µM (inactive)
- GI50 (OVCAR-5): > 100 µM (inactive)
- GI50 (OVCAR-8): > 100 µM (inactive)
- GI50 (RPMI-8226): > 100 µM (inactive)
- GI50 (RXF 393): > 100 µM (inactive)
- GI50 (SF-268): > 100 µM (inactive)
- GI50 (SF-295): > 100 µM (inactive)
- GI50 (SF-539): > 100 µM (inactive)
- GI50 (SK-MEL-28): > 100 µM (inactive)
- GI50 (SK-MEL-2): > 100 µM (inactive)
- GI50 (SK-MEL-5): > 100 µM (inactive)
- GI50 (SK-OV-3): > 100 µM (inactive)
- GI50 (SN12C): > 100 µM (inactive)
- GI50 (SNB-19): > 100 µM (inactive)
- GI50 (SNB-78): > 100 µM (inactive)
- GI50 (SR): > 100 µM (inactive)
- GI50 (SW-620): > 100 µM (inactive)
- GI50 (U-251): > 100 µM (inactive)
- GI50 (UACC-257): > 100 µM (inactive)
- GI50 (UACC-62): > 100 µM (inactive)
- GI50 (UO-31): > 100 µM (inactive)
